In US20250381171A1, “COMBINATION OF DIHYDROBERBERINE AND ERGOTHIONEINE TO REDUCE OR INHIBIT ADVANCED GLYCATION END-PRODUCTS” (NANJING NUTRABUILDING BIO-TECH CO., LTD., priority 2023, published 2025):

Experiments:
GSH-Px = GSH-Px activity in skin of D-galactose-injected mice; type: in vivo, Kunming mice; details: 14th week, 100 mg/kg each s.c. once daily for 6 weeks, vs non-supplementation group
Protocol: (§1) Six-week-old, male, Kunming mice (n=40), weighed about 30±2 g, were obtained from Cavens Lab Animal (Changzhou, China) and housed in a controlled room (25±2° C., 60% relative humidity, 12 h light/dark cycle) with free access to water and standard laboratory diet. After an acclimation period (1 week), mice were randomly divided into four groups. Each mouse's back skin was chosen as the experimental observation area, a razor was used to shave off the back hair. 5% sodium sulfide solution was applied to the back to remove the hair. All mice were then injected subcutaneously with same volume of D-galactose (1000 mg/kg), once a day for 8 weeks. During the entire experiment, the daily food intake and weight of each mouse were recorded every day, and the D-galactose injection dose were adjusted according to the weight change. The four groups were non-supplement group (Con, Group 1); DHB supplement group (100 mg/kg, Group 2); EGT supplement group (100 mg/kg, Group 3); and EGT+DHB supplement group (100 mg/kg EGT+100 mg/kg DHB, Group 4). Mice in groups 2-4 were injected subcutaneously (s.c.) into their back skins with the corresponding concentration before each major meal once daily for 6 weeks. All mice were sacrificed after 6 weeks at the end of the experiment. […] The levels of H2O2, SOD, CAT, GSH, and GSH-Px in the skin were detected with relative kits as reference. […]

SOD = SOD activity in skin of D-galactose-injected mice; type: in vivo, Kunming mice; details: 14th week, 100 mg/kg each s.c. once daily for 6 weeks, vs non-supplementation group
Protocol: as §1

CAT = CAT activity in skin of D-galactose-injected mice; type: in vivo, Kunming mice; details: 14th week, 100 mg/kg each s.c. once daily for 6 weeks, vs non-supplementation group
Protocol: as §1

GSH = GSH activity in skin of D-galactose-injected mice; type: in vivo, Kunming mice; details: 14th week, 100 mg/kg each s.c. once daily for 6 weeks, vs non-supplementation group
Protocol: as §1

[1] = tested on: advanced glycation end products (AGEs) formed from bovine serum albumin (BSA) and D-ribose; experiment: Measurement of glycation: fluorescence of AGEs from BSA incubated with D-ribose; type: biochemical; details: BSA 1 mg/ml + D-ribose 10 mM, 37° C., 10 days; EGT 3 mM alone or DHB 3 mM + EGT 3 mM
Protocol: The formulation of glycation products was observed placing together a bovine serum albumin (BSA) and D-ribose in the absence of DHB and EGT, EGT only and DHB and EGT combination.
Specifically, a solution of BSA at a concentration of 1 mg/ml dissolved in phosphate-buffered saline (PBS) was incubated at 37° C. for 10 days with D-ribose at a concentration of 10 mM, in the presence of EGT only (3 mM, Group 1) and the DHB (3 mM) and EGT (3 mM) combination (Group 2).
So, the glycation was evaluated by measuring the fluorescence of the AGEs at λem=450 nm emitted by each sample after excitation at λex=380 nm. The inhibition of glycation was visualized by the decrease in fluorescence compared with the samples treated with the sugar alone.

Row | Structure (SMILES) | GSH-Px activity (in words) (GSH-Px) | SOD activity (in words) (SOD) | CAT activity (in words) (CAT) | GSH activity (in words) (GSH) | anti-glycation activity (in words) [1]
1 | COc1ccc2c(c1OC)CN1CCc3cc4c(cc3C1=C2)OCO4 [DHB, Dihydroberberine] | significantly improved | significantly improved | significantly improved | significantly improved | 
2 | C[N+](C)(C)[C@@H](Cc1c[nH]c(=S)[nH]1)C(=O)[O-] [EGT, ergothioneine] | significantly improved | significantly improved | significantly improved | significantly improved | fabulous anti-glycation activity
